# Earlier results as cited in patent US6184217A (Cephalon, Inc., priority 1997, dated 2001).
# Tests used:
# [1] = system: protein kinase C (PKC); details: cited from earlier work
# [2] = system: smooth muscle contraction; details: cited from earlier work
# [3] = system: elongation of neurazone; details: cited from earlier work
# [4] = system: histamine release; details: cited from earlier work
# [5] = system: smooth muscle MLCK; details: cited from earlier work
# [6] = system: inflammation; details: cited from earlier work
# [7] = system: IL-2 production; details: cited from earlier work
# [8] = system: lethality resulting from endotoxin administration; details: in vivo; cited from earlier work
compound,measurement,setting,value
COC(=O)C1(O)CC2OC1(C)n1c3ccccc3c3c4c(c5c6ccccc6n2c5c31)C(=O)NC4 (centres unmarked) [Compound K-252a],inhibition of protein kinase C,[1],strongly inhibits protein kinase C (PKC)
same,inhibiting smooth muscle contraction,[2],inhibiting smooth muscle contraction
same,inhibiting elongation of neurazone,[3],inhibiting elongation of neurazone
same,inhibiting histamine release,[4],inhibiting histamine release
same,inhibiting smooth muscle MLCK,[5],inhibiting smooth muscle MLCK
same,anti-inflammatory action,[6],anti-inflammatory action
same,inhibiting IL-2 production,[7],inhibiting IL-2 production
same,lethality resulting from endotoxin administration,[8],reduces the lethality resulting from endotoxin administration
